Test [1] deals with T1, NA from influenza A(H1N1) virus isolates (Influenza A virus, UniProt C0LLZ0). The test is classed as biochemical.
Test [2] concerns the target NA from influenza A(H1N1)pdm09 virus isolates (Influenza A virus, UniProt C7FH46). The test is classed as biochemical.
Test [3] addresses T2, NA from influenza A(H3N2) virus isolates (Influenza A virus, UniProt V5P6L4). The test is classed as biochemical.
The target in test [4] is T1, NA from influenza A(H1N1) virus isolates. The note with it: cited from earlier work.
Test [5] deals with NA from influenza A(H1N1)pdm09 virus isolates. The conditions noted are these: cited from earlier work; for IC50: read-out: IC50, susceptible reference strain.
For test [6], the target named is T2, NA from influenza A(H3N2) virus isolates. The note with it: cited from earlier work.
The target in test [7] is NA from influenza B virus isolates (Influenza B virus, UniProt A0A1S5RAG6). It is filed as biochemical.
Setting [8] is: read-out: IC50, susceptible reference strain.

The text below walks through data of publication PMC6304311 (Influenza and Other Respiratory Viruses, 2018).

Like-named read-outs stand apart in the source and are kept apart here.

The IC50 is the point on the concentration scale where inhibition reaches its midpoint.

For the compound `CC(=O)N[C@H]1[C@H]([C@H](O)[C@H](O)CO)OC(C(=O)O)=C[C@@H]1N=C(N)N` [zanamivir], the Susceptible result was “susceptible and Yes” in test [1]; “susceptible and Yes” in test [2]; “susceptible and Yes” in test [3]. In test [1], the outlier virus isolates is 3/4. The “susceptibility phenotype of reference virus” value in test [4], in test [5] and in test [6] was “susceptible” each time. The IC50 in test [5] is 0.42 nM.
For `CCOC(=O)C1=C[C@@H](OC(CC)CC)[C@H](NC(C)=O)[C@@H](N)C1` [oseltamivir], the Susceptible result in test [1] is “susceptible and Yes and No”; in test [2] it was “susceptible and Yes”; in test [3] it was “susceptible and Yes”; in test [7], “susceptible and Yes”. Moreover, in test [1], the outlier virus isolates is given as 2/4. For the same compound, in test [1], the “share of virus isolates with markedly increased IC50” value came out at 97.9%. Moreover, the IC50 in test [3] (read-out: IC50 Median (range)) was 0.05 nM; in test [3] (read-out: IC50 Statistical cutoff (X 0.75 + 3IQR)) it was 0.15 nM; in test [3] (read-out: IC50 X 0.75 (75th percentile)), 0.06 nM; in test [4] (setting [8]), 0.13 nM; in test [5] it was 0.1 nM; in test [6] (setting [8]), 0.21 nM.
